Measurements as given in patent publication US20250000835A1, “SYNERGIES OF 1- BETA-CARYOPHYLLENE, CANNABIDIOL AND TRIBUTYRIN; 2- RETINYL PALMITATE, BETA-CARYOPHYLLENE AND CANNABIDIOL; 3- RETINYL PALMITATE AND BETA-CARYOPHYLLENE IN CONTROLING INFLAMMATION, METABOLIC HEALTH, INSULIN SENSITIVITY/ GLYCEMIC - GLUCOSE UPTAKE & MANAGEMENT, AND FATTY LIVER/ NAFLD” (FLG Sciences, LLC, priority 2022, published 2025).

Experiments:
Type in all cases: cell-based
[1] = system: AML-12 liver cells; assay: Cellular glucose levels, colorimetric glucose oxidase assay, AML-12 liver cells; settings: 12 h treatment with TNF-alpha (15 ng/mL), vs DMSO control
Protocol: (§1) There were two different treatment experiments including: Cells treated with compounds 1-5 above for 3 hours; Cells treated with compounds 1-5 above for 12 hours with a concomitant TNF-alpha treatment (15 ng/mL); Cell treatments were performed using C2C12 myotubes (muscle cells), and AML-12 cells (liver cells).
(§2) There are also combination formulations, where the following combination formulations were tested: 6) Control or “vehicle” (DMSO only); 7) Vitamin A, or “VitA” (1.2 μM)+Beta-caryophyllene (100 ng/mL)+Tributyrin (10 μM); 8) Vitamin A, or “VitA” (1.2 μM)+Beta-caryophyllene (100 ng/mL)+CBD (95 ng/ml); 9) Beta-caryophyllene (100 ng/mL)+CBD (95 ng/mL)+Tributyrin (10 μM); 10) Vitamin A, or “VitA” (1.2 μM)+Beta-caryophyllene (100 ng/mL).
(§3) As with single ingredients, two different treatment experiments occurred with these combos including: Cells treated with compounds 1-5 above for 3 hours. Cells treated with compounds 1-5 above for 12 hours with a concomitant TNF-alpha treatment (15 ng/ml)
(§4) All cells were grown to confluence using cell-specific media and additives.
(§5) The day of treatment, culture media was spiked with the appropriate ingredients (these are termed “treatment media”) […]

[2] = target: T1, PPARγ (Mus musculus, UniProt P37238); assay: PPARγ DNA binding activity, C2C12 muscle cells; settings: vs DMSO control
T1 construct: endogenous in cells; host or cells: C2C12 myotubes (muscle cells)
T1 sequence (P37238 1-505): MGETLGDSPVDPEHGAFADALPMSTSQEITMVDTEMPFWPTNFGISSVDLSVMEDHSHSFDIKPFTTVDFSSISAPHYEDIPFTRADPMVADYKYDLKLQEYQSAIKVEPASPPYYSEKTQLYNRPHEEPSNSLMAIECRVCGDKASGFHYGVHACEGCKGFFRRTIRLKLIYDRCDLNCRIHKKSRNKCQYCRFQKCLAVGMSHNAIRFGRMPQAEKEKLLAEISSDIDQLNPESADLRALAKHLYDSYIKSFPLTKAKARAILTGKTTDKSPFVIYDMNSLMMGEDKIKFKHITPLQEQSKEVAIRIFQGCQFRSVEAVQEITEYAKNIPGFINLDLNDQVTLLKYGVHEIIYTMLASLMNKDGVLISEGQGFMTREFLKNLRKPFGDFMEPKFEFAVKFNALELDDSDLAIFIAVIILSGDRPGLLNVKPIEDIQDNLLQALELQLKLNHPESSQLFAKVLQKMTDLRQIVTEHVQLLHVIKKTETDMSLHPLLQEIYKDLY
Protocol: as §1, §2, §3, §4
(§6) The day of treatment, culture media was spiked with the appropriate ingredients (these are termed “treatment media”)
(§7) After either the 3-h or 12-h treatments described above, treatment media was removed, cells were rinsed with 1× phosphate-buffered saline, and general cell lysis buffer (Tris-based with detergent) was used to lyse cells
(§8) Cells were scraped off the plate with a rubber policeman in the lysis buffer, the slurry was placed in 1.7 mL tubes, and lysates were frozen at −80° C. until the respective assays discussed below.
(§9) There are n=5-6 replicates per treatment condition.
(§10) PPARγ DNA binding activity was assessed using a plate that was pre-coated with a PPAR-gamma consensus binding sequence. Thereafter, antibody-based methods were used to assess the amount of bound transcription factor, and data were normalized to total protein loaded in the assay.

[3] = system: SOD2; assay: SOD2 protein levels by Western blotting, C2C12 muscle cells; settings: 3 h and 12 h with TNF-alpha, treatment not told apart in text, vs DMSO control
Protocol: as §1, §2, §3, §4, §5

[4] = system: C2C12 myotubes (muscle cells); assay: Cellular glucose levels, colorimetric glucose oxidase assay, C2C12 muscle cells; settings: 12 h treatment with TNF-alpha (15 ng/mL), vs DMSO control
Protocol: as §1, §2, §3, §4, §5

[5] = system: phosphorylated p65/NF-κB; assay: Inflammatory signaling (phosphorylated NF-kB) by Western blotting, C2C12 muscle cells; settings: vs DMSO control
Protocol: as §1, §2, §3, §4, §6, §7, §8, §9
SOD2, SOD1, phosphorylated p65/NF-κB, pro-caspase 1, and NLRP3 were assayed using Western blotting methods.

[6] = target: T1, PPARγ; assay: PPARγ DNA binding activity, AML-12 liver cells; settings: vs DMSO control
Protocol: as §1, §2, §3, §4, §6, §7, §8, §9, §10

[7] = system: C2C12 myotubes (muscle cells); assay: Cellular antioxidant (AOx) capacity, Cu2+ ion conversion assay, C2C12 muscle cells; settings: vs DMSO control
Protocol: as §1, §2, §3, §4, §5
(§11) Total antioxidant capacity was assessed using a Cu2+ ion is conversion assay.

[8] = system: AML-12 liver cells; assay: Cellular antioxidant (AOx) capacity, Cu2+ ion conversion assay, AML-12 liver cells; settings: 3 h treatment, vs DMSO control, CBD 95 ng/ml, VitA 1.2 μM, tributyrin 10 μM, beta-caryophyllene 100 ng/ml
Protocol: as §1, §2, §3, §4, §5, §11

[9] = 12 h treatment with TNF-alpha (15 ng/mL)

CCCC(=O)OCC(COC(=O)CCC)OC(=O)CCC [tributyrin, Tributyrin]
Cellular glucose levels vs control [1]: increases cell glucose
PPARγ DNA binding activity vs control [2, 9]: values of greater significance than the control
SOD2 protein levels vs control [3]: significance value less the control
Cellular glucose levels vs control [4]: increases cell glucose
NF-kB phosphorylation vs control [5, 9]: significant values in reducing NF-kB phosphorylation
PPARγ DNA binding activity vs control ([6]; 3 h treatment): significance values greater than control group
PPARγ DNA binding activity vs control [6, 9]: significance value greater than control group

CCCCCCCCCCCCCCCC(=O)OC/C=C(C)/C=C/C=C(C)/C=C/C1=C(C)CCCC1(C)C [vitamin A, Retinyl palmitate]
PPARγ DNA binding activity vs control ([2]; 3 h treatment): significance value greater than control group
Cellular AOx capacity vs control ([7]; 3 h treatment, CBD 95 ng/ml, VitA 1.2 μM, tributyrin 10 μM, beta-caryophyllene 100 ng/ml): expressed significance values
Cellular AOx capacity vs control [8]: showed an antioxidant capacity
PPARγ DNA binding activity vs control ([6]; 3 h treatment): significance values greater than control group

cannabidiol [CBD]
PPARγ DNA binding activity vs control [2, 9]: values of greater significance than the control
SOD2 protein levels vs control [3]: significance value less the control
NF-kB phosphorylation vs control ([5]; 3 h treatment): the only one with significant value among the ingredients
Cellular AOx capacity vs control [7, 9]: expressed significance value
Cellular AOx capacity vs control [8]: expressed results with significance value

C=C1CC/C=C(\C)CC[C@@H]2[C@@H]1CC2(C)C [BCP, beta-caryophyllene]
NF-kB phosphorylation vs control [5, 9]: significant values in reducing NF-kB phosphorylation
PPARγ DNA binding activity vs control ([6]; 3 h treatment): significance values greater than control group
